Experimental findings from patent US20150316568A1, “Method for Screening Lyophilized Parenteral Formulations” (Cubist Pharmaceuticals, Inc., priority 2014, published 2015) are described below.

The text on data set [1]: 1. […] 2. […] 3. […] 4. […] 5. […] 6. […] 7. […] 8. […] 9. […] 10.
The nature of data set [2]: X-Ray Powder Diffraction (XRPD) of solid form pre/post lyophilization. The format is physicochemical. Particulars: crystalline powder before lyophilization.

Take `Fc1ccc([C@@H]2CCNC[C@H]2COc2ccc3c(c2)OCO3)cc1` [Paroxetine]: in data set [1], the solubility improvement is on record as 3-4 ×. Besides, the “solid form after the lyophilization process (XRPD)” value (“solid form” for short) in data set [2] is recorded as “amorphous form”. With `O=C(O)c1cn(C2CC2)c2cc(N3CCNCC3)c(F)cc2c1=O` [Ciprofloxacin], the “solid form” value in data set [2] is recorded as “semi-crystalline forms”. For the compound `CN1CCN(c2cc3c(cc2F)c(=O)c(C(=O)O)cn3-c2ccc(F)cc2)CC1` [Difloxacin], the solubility improvement in data set [1] is given as 3-4 ×. The “solid form” value in data set [2] is “amorphous form”.
